Measurements reported in paper PMC3115942 (PLoS ONE, 2011).

Experiments:
[1] = tested on: Gli1 mRNA expression in Sufu−/− MEF; test: Real time PCR of Gli1 mRNA in Sufu−/− MEF; assay type: cell-based, mouse; conditions: 10 µM, 72 hours
Procedure: (§1) Cells were lysed for RNA extraction after 48 or 72 hours of treatment. Total RNA from cultured cells or tumor tissue was isolated using the GeneElute miniprep kit (Sigma-Aldritch) following the manufacturer^'s instructions. cDNA was synthesized from the isolated mRNA using the Retroscript kit (Ambion), and real-time PCR was carried out using the SYBR Green PCR master mix (Stratagene) according to the manufacturer^'s instructions with an Mx3000P cycler (Stratagene). The relative concentrations of cDNA present in each sample were calculated by the MxPro software (Stratagene), normalized for GAPDH (mRNA from cells) or GUS (mRNA from tumors). For real time PCR primer sequences see Table 6. For the tumor tissue real time PCR, previously described human and mouse specific primers against GUSB, PTCH1 and GLI1were used.

[2] = tested on: 58 kinases; test: Millipore kinase diversity panel (whole panel); assay type: biochemical; conditions: 10 µM
[3] = tested on: PANC-1 xenograft; test: PANC-1 subcutaneous xenograft in CB17/SCID mice; assay type: in vivo, mouse
Procedure: as §1
(§2) For PANC-1 xenografts, 4–6 week old CB17/SCID mice were injected with 5×10^6 PANC-1 (n = 6 per group) cells in 200 µl PBS subcutaneously on day 1. IP treatment with 50 mg/kg MS-0022 began when median tumor size reached 25 mm^2 (day 27). MS-0022 was pulverized using a pestle, and was mixed into a stable suspension in water containing 1% Tween 80 (Sigma-Aldrich). Mice were treated with MS-0022 or solvent for a period of 30 days after initiation in a 5 day injection 2 day pause scheme, and tumor size was measured throughout using calipers (mm^2). After 30 days the mice were sacrificed and tumors dissected and weighed. The PANC-1 xenograft endpoint was taken two days after the last compound treatment.

[4] = tested on: SUIT-2 cells; test: In vitro antiproliferative assay (MTS), SUIT-2; assay type: cell-based, human; conditions: 4 day
Procedure: Cells were plated at a density of 3000 (THLE-2 and PC-3) and 1000 (PANC-1, SUIT-2 and FEMX) cells per well (on the basis of their growth rate) in 200 µl of medium in a 96-well plate. Medium was changed daily, and after four days, the assay was read using a MTS kit (Promega) according to the instructions of the manufacturer. Graphs display average of percent growth with standard deviation (n = 8).

[5] = Liver transaminases (AST/ALT) in xenografted mice; assay type: in vivo, mouse; conditions: 50 mg/kg, 30 days injection scheme (5 day injection, 2 day pause), PANC-1 xenograft mice
Procedure: as §2
Blood was collected from the hepatic vein of freshly sacrificed animals into heparinized capillary blood collection tubes (Sarstedt), which were immediately centrifuged and the serum was collected. AST and ALT were run on non-hemolyzed samples using AST and ALT kits (Randox) following the manufacturer^'s instructions.

[6] = tested on: PANC-1 cells; test: Soft agar colony formation assay, PANC-1; assay type: cell-based, human; conditions: 21 days
Procedure: 2000 PANC-1 or SUIT-2 cells were suspended in 1.5 mL growth media containing 0.35% agar (Oxoid), over a 1.5 mL base layer containing 0.5% agar in 6-well plates. The plates were incubated for 14 days (SUIT-2) and 21 days (PANC-1) and then stained for 1 h with 1 ml of 0.02% crystal violet (Sigma-Aldrich), and colonies were counted according to sizes; <0.2 mm (small), 0.2–1 mm (medium) and >1 mm (large). Data represent average numbers with standard deviation bars (n = 3). The experiments have been repeated with similar result.

[7] = target: T1, IKKα(h) (Homo sapiens, UniProt O15111); test: Millipore kinaseprofiler diversity array; assay type: biochemical; conditions: 10 µM MS-0022
T1 construct: purchased Millipore (Upstate) KinaseProfiler
Procedure: (§3) Table 4 Kinase activity in presence of 10 µM MS-0022 in a kinaseprofiler diversity array. | column: Activity %

[8] = target: T2, Plk3(h) (Homo sapiens, UniProt Q9H4B4); test: Millipore kinaseprofiler diversity array; assay type: biochemical; conditions: 10 µM MS-0022
T2 construct: purchased Millipore (Upstate) KinaseProfiler
Procedure: as §3

[9] = target: T3, GSK3β(h) (Homo sapiens, UniProt P49841); test: Millipore kinaseprofiler diversity array; assay type: biochemical; conditions: 10 µM MS-0022
T3 construct: purchased Millipore (Upstate) KinaseProfiler
T3 sequence (P49841 whole entry): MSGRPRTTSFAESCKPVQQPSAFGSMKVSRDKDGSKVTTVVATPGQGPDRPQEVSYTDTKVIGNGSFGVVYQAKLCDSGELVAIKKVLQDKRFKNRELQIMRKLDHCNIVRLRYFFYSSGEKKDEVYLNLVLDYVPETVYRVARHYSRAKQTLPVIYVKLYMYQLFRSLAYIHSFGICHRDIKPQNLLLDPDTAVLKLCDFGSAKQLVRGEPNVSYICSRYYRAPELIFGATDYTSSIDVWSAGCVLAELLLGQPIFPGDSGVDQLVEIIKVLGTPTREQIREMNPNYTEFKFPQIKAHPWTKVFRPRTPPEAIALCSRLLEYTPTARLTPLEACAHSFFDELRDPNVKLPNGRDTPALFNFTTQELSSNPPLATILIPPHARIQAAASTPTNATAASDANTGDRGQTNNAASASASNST
Procedure: as §3

[10] = target: T4, PDGFRβ(h) (Homo sapiens, UniProt P09619); test: Millipore kinaseprofiler diversity array; assay type: biochemical; conditions: 10 µM MS-0022
T4 construct: purchased Millipore (Upstate) KinaseProfiler
T4 sequence (P09619 33-1106): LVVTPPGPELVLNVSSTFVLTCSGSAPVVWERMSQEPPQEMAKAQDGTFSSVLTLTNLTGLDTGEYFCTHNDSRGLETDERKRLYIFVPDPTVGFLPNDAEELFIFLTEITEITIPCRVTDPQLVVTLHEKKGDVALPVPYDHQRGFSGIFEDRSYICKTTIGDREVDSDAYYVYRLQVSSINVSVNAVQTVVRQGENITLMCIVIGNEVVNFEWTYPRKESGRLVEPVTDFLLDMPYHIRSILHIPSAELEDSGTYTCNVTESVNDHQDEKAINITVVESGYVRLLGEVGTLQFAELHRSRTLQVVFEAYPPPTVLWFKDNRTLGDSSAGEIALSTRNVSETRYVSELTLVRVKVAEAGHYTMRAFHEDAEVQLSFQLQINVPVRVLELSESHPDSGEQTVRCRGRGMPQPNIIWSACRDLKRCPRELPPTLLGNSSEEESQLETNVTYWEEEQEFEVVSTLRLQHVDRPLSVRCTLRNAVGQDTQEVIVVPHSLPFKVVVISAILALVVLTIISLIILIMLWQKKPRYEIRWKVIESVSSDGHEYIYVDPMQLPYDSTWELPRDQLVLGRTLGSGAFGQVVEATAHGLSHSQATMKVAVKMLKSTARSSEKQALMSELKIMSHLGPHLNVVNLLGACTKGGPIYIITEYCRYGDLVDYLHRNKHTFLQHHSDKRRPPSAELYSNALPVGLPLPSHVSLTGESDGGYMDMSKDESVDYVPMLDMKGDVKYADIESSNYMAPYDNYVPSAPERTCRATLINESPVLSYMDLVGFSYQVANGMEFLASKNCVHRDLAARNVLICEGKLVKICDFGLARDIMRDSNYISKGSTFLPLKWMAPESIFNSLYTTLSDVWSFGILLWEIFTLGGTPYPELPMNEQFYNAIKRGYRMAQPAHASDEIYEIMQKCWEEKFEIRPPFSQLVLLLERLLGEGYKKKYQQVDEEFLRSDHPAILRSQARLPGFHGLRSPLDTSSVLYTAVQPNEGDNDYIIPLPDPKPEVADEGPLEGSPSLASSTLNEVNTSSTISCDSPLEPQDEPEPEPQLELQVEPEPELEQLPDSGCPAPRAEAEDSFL
Procedure: as §3

[11] = target: T5, TAK1(h) (Homo sapiens, UniProt O43318); test: Millipore kinaseprofiler diversity array; assay type: biochemical; conditions: 10 µM MS-0022
T5 construct: purchased Millipore (Upstate) KinaseProfiler
T5 sequence (O43318 1-303 limits assumed): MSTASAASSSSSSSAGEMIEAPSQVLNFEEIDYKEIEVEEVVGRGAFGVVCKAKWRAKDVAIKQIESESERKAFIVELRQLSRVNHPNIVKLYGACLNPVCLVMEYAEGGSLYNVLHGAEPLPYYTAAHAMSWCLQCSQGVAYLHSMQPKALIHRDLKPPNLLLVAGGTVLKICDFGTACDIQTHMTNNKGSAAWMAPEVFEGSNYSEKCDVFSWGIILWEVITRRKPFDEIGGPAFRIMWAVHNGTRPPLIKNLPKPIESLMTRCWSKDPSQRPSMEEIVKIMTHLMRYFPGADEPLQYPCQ
Procedure: as §3

[12] = target: T6, CK2α2(h) (Homo sapiens, UniProt P19784); test: Millipore kinaseprofiler diversity array; assay type: biochemical; conditions: 10 µM MS-0022
T6 construct: purchased Millipore (Upstate) KinaseProfiler
Procedure: as §3

[13] = target: T7, cSRC(h) (Homo sapiens, UniProt P12931); test: Millipore kinaseprofiler diversity array; assay type: biochemical; conditions: 10 µM MS-0022
T7 construct: purchased Millipore (Upstate) KinaseProfiler
Procedure: as §3

[14] = target: T8, CHK1(h) (Homo sapiens, UniProt O14757); test: Millipore kinaseprofiler diversity array; assay type: biochemical; conditions: 10 µM MS-0022
T8 construct: purchased Millipore (Upstate) KinaseProfiler
T8 sequence (O14757 whole entry): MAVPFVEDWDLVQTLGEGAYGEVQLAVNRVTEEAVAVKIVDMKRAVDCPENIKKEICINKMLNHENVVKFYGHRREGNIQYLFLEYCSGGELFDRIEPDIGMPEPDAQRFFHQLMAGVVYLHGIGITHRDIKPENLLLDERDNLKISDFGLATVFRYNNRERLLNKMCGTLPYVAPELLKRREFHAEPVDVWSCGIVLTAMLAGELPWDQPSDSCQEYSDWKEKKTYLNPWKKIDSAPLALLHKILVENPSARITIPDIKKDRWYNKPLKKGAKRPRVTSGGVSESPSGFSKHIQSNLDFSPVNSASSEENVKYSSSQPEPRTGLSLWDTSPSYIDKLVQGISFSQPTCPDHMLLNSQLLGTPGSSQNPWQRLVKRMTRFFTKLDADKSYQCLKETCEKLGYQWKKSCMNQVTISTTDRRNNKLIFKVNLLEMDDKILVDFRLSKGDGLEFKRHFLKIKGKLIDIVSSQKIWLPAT
Procedure: as §3

[15] = target: T9, p70S6K(h) (Homo sapiens, UniProt P23443); test: Millipore kinaseprofiler diversity array; assay type: biochemical; conditions: 10 µM MS-0022
T9 construct: purchased Millipore (Upstate) KinaseProfiler
T9 sequence (P23443 whole entry): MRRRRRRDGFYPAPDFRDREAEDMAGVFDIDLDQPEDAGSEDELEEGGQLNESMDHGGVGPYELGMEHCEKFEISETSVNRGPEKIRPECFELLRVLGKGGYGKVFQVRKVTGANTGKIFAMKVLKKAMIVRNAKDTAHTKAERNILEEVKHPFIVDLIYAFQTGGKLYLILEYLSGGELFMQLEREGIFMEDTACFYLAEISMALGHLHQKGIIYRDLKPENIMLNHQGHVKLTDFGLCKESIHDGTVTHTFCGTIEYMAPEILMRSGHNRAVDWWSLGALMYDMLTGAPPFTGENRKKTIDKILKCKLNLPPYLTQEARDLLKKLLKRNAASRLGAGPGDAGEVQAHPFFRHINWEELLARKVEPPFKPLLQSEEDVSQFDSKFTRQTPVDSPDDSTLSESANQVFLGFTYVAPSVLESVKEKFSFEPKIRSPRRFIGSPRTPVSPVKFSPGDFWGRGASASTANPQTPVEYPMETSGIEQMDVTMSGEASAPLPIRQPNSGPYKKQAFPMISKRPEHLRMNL
Procedure: as §3

[16] = target: T10, MAPK2(h) (Homo sapiens, UniProt P28482); test: Millipore kinaseprofiler diversity array; assay type: biochemical; conditions: 10 µM MS-0022
T10 construct: purchased Millipore (Upstate) KinaseProfiler
T10 sequence (P28482 whole entry): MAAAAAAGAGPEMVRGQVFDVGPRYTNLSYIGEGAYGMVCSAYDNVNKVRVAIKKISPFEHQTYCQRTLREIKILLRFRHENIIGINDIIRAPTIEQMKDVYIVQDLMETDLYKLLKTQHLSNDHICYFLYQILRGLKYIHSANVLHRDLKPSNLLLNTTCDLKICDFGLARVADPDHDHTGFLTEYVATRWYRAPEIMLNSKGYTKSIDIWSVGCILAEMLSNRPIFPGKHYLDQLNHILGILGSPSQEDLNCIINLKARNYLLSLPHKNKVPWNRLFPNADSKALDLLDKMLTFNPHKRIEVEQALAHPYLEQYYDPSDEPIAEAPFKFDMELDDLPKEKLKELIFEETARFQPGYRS
Procedure: as §3

[17] = target: T11, MKK7β(h) (Homo sapiens, UniProt O14733); test: Millipore kinaseprofiler diversity array; assay type: biochemical; conditions: 10 µM MS-0022
T11 construct: purchased Millipore (Upstate) KinaseProfiler
Procedure: as §3

[18] = target: T12, CDK7/cyclinH/MAT1(h) (Homo sapiens, UniProt P50613); test: Millipore kinaseprofiler diversity array; assay type: biochemical; conditions: 10 µM MS-0022
T12 construct: purchased Millipore (Upstate) KinaseProfiler
Procedure: as §3

[19] = target: T13, ALK(h) (Homo sapiens, UniProt Q9UM73); test: Millipore kinaseprofiler diversity array; assay type: biochemical; conditions: 10 µM MS-0022
T13 construct: purchased Millipore (Upstate) KinaseProfiler
T13 sequence (Q9UM73 19-1620): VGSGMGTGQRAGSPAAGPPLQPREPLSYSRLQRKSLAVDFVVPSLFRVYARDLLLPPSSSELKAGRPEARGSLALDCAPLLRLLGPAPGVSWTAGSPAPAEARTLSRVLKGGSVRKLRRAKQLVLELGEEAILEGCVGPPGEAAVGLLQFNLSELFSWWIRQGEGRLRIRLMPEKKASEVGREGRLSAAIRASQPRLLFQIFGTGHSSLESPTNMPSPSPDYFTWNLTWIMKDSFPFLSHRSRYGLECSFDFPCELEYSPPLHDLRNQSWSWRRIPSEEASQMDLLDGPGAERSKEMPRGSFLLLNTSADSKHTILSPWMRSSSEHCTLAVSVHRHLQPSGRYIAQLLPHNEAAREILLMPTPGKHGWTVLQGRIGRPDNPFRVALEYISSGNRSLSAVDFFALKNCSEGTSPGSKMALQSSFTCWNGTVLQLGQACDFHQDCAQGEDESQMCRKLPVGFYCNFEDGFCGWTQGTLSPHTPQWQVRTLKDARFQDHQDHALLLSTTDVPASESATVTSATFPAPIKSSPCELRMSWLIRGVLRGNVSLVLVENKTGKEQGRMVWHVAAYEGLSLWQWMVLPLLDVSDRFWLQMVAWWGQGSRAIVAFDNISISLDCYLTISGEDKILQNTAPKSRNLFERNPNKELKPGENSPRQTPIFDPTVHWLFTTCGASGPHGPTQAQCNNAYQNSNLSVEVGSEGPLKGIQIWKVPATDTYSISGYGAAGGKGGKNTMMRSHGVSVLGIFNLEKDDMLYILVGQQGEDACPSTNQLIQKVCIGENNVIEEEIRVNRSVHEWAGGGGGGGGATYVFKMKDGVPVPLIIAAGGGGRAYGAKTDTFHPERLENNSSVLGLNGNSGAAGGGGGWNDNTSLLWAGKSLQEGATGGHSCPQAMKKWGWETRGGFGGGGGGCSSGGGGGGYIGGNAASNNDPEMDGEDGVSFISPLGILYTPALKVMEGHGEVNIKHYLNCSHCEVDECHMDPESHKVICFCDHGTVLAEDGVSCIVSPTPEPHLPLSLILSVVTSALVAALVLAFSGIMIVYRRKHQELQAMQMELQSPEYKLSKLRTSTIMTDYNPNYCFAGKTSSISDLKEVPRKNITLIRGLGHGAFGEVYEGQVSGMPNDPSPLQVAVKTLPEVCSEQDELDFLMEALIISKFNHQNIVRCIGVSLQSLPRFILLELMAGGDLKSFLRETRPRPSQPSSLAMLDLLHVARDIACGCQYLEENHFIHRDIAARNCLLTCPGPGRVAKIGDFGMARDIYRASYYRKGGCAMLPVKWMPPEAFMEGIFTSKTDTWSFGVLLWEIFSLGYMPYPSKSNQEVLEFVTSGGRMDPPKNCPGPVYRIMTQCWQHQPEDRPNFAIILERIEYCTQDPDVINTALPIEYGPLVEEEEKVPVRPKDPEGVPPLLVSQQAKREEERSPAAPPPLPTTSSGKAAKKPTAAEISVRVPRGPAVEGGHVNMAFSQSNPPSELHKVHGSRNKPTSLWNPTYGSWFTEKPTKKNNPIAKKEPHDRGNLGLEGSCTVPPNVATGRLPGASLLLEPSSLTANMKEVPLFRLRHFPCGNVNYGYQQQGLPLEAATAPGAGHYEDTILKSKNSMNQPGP
Procedure: as §3

[20] = tested on: PC-3 cells; test: Passage growth assay, PC-3; assay type: cell-based, human; conditions: 5 µM, passages of 5–7 days
Procedure: 20,000 cells were seeded per well in 6 well plates (triplicates) with DMSO or 5 µM MS-0022. Treatment medium was changed on day 3–5, and after 5–7 days the cells were trypsinized, re-suspended in medium and counted, before reseeding cells at 20,000/well for a subsequent passage. The average growth of MS-0022 treated cells was calculated as a percentage of the growth of the DMSO control at the end of each passage. Graphs display average of percent growth with standard deviation bars (n = 3).

[21] = Dose tolerance in mice; assay type: in vivo
Procedure: MS-0022 tolerance was tested by daily injections of 200 mg/kg MS-0022 for 5 days in 7–8 week old male C57BL mice. Animal were observed daily for outward signs of toxicity (weight loss, fur ruffling, hunched posture).

[22] = QD, IP at 50 mg/kg, 5 day injection/2 day pause, end of treatment, vs control solvent

Compound: Cc1cccn2cc(-c3ccc(NC(=O)c4ccccc4Br)cc3)nc12 [MS-0022, 2-bromo-N-(4-(8-methylimidazo[1,2-a]pyridin-2-yl)phenyl)benzamide]
- reduction of relative Gli1 mRNA levels in Sufu−/− MEFs [1]: 50%
- inhibition of kinases of the diversity panel (in words) [2]: did not significantly inhibit
- reduction in tumor volume, PANC-1 xenograft [3, 22]: 38%
- reduction in tumor weight, PANC-1 xenograft [3, 22]: 33%
- human (tumor) or mouse (stroma) Ptch1 or Gli1 mRNA levels in PANC-1 tumors ([3]; endpoint of the experiment, 50 mg/kg IP): no statistically relevant difference
- growth (MTS), SUIT-2 [4]: only MS-0022 reduced growth
- AST/ALT levels [5]: greater than 1
- soft agar colony formation, PANC-1 [6]: reduction in large (Figure 2C–D, and G) and medium sized colonies
- activity at 10 µM [7]: 103%
- activity at 10 µM [8]: 107%
- activity at 10 µM [9]: 88%
- activity at 10 µM [10]: 108%
- activity at 10 µM [11]: 98%
- activity at 10 µM [12]: 109%
- activity at 10 µM [13]: 83%
- activity at 10 µM [14]: 84%
- activity at 10 µM [15]: 94%
- activity at 10 µM [16]: 101%
- activity at 10 µM [17]: 109%
- activity at 10 µM [18]: 103%
- activity at 10 µM [19]: 95%
- growth reduction after passage 2, PC-3 [20]: 80%
- outward signs of toxicity or other side effects ([21]; 200 mg/kg daily for 5 days): did not show any outward signs of toxicity
- alterations in body weight ([21]; daily IP injections of 200 mg/kg for 5 days): No statistically significant alterations
- MTD at 5 days ([21]; male, C57BL, mouse, in vivo, intraperitoneal, 200 mg/kg, mice): > 200 mg/kg
